Results on eight compounds are retold here after PubChem BioAssay (NCI).

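48-hour exposure; five concentrations; linearly interpolated endpoints. The concentration for full growth arrest is given as TGI.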 A value given as a limit tells only on which side of the number the result lay.

Among the test systems are A498 renal; A549 NSCLC; CCRF-CEM leukemia; HL-60(TB) leukemia; HOP-92 NSCLC; MALME-3M melanoma; MDA-MB-231 breast; NCI-H23 lung; NCI/ADR-RES ovarian; OVCAR-3 ovarian; OVCAR-8 ovarian; SF-268 CNS; SF-539 CNS; SW-620 colon; TK-10 renal; U251 CNS; UACC-62 melanoma; SN12C renal; T-47D breast.
Common to all, as to experiment: growth of human tumour cells (NCI), 48 h

Turning to `Cc1c(/C=N/NC(=S)N2CCCCC2)c(=O)n(-c2ccccc2)n1C`, the TGI was above 100 µM in the assay with A498 renal; above 100 µM in the assay with A549 NSCLC; above 100 µM in the assay on CCRF-CEM leukemia; 95 µM in the assay with HL-60(TB) leukemia; above 100 µM in the assay with HOP-92 NSCLC; above 100 µM in the assay with MALME-3M melanoma. Also, the TGI with MDA-MB-231 breast, with NCI-H23 lung, with NCI/ADR-RES ovarian, with OVCAR-3 ovarian, with OVCAR-8 ovarian and with SF-268 CNS was above 100 µM in each case. Further, the TGI with SF-539 CNS, in the assay with SW-620 colon, with TK-10 renal, in the assay on U251 CNS and with UACC-62 melanoma was above 100 µM throughout.

Regarding `CC1=CCC(C(C)(C)NC(=O)c2ccccc2)C/C1=N/O` (stereo not drawn), the TGI with A549 NSCLC, in the assay with CCRF-CEM leukemia, with HL-60(TB) leukemia, in the assay on HOP-92 NSCLC, with MDA-MB-231 breast and in the assay on NCI-H23 lung was above 100 µM each time. Besides, the TGI in the assay with OVCAR-3 ovarian, with OVCAR-8 ovarian, with SF-268 CNS, in the assay on SF-539 CNS, in the assay with SN12C renal and in the assay with SW-620 colon was above 100 µM in each case. In addition, the TGI in the assay on T-47D breast, in the assay on TK-10 renal, in the assay with U251 CNS and in the assay on UACC-62 melanoma was above 100 µM each time.

For the compound `O=c1c(Sc2c(SCSc3cnc4ccccc4c3Sc3c[nH]c4ccccc4c3=O)cnc3ccccc23)c[nH]c2ccccc12`, the TGI in the assay on CCRF-CEM leukemia, in the assay on HL-60(TB) leukemia, in the assay with HOP-92 NSCLC, in the assay with MDA-MB-231 breast, in the assay on NCI-H23 lung and in the assay on NCI/ADR-RES ovarian was above 100 µM each time. For the same compound, the TGI in the assay with OVCAR-3 ovarian, with OVCAR-8 ovarian, in the assay with SF-268 CNS, in the assay with SF-539 CNS, with SN12C renal and in the assay with SW-620 colon was above 100 µM throughout. In addition, the TGI in the assay with T-47D breast, in the assay on TK-10 renal, in the assay with U251 CNS and in the assay with UACC-62 melanoma was above 100 µM in each case.

For `COc1cc(OC)c2c(=O)c3cccc(C)c3n(C)c2c1`, the TGI with A498 renal, in the assay with A549 NSCLC, with CCRF-CEM leukemia, with HL-60(TB) leukemia, in the assay with HOP-92 NSCLC and with MALME-3M melanoma was above 100 µM throughout. The TGI in the assay on MDA-MB-231 breast, in the assay on NCI-H23 lung, in the assay on NCI/ADR-RES ovarian, with OVCAR-3 ovarian, in the assay with OVCAR-8 ovarian and with SF-268 CNS was above 100 µM in each case. The TGI with SF-539 CNS, in the assay with SN12C renal, in the assay on SW-620 colon, with TK-10 renal, in the assay with U251 CNS and in the assay on UACC-62 melanoma was above 100 µM each time.

Turning to `O=C1Oc2ccccc2C(=O)/C1=C/N1C(=O)CNC1=S`, the TGI in the assay with A549 NSCLC, in the assay on CCRF-CEM leukemia, in the assay on HL-60(TB) leukemia, with MDA-MB-231 breast, in the assay on NCI-H23 lung and with NCI/ADR-RES ovarian was above 100 µM in each case. Also, the TGI with OVCAR-3 ovarian, in the assay on OVCAR-8 ovarian, in the assay on SF-268 CNS, with SF-539 CNS, in the assay with SN12C renal and with SW-620 colon was above 100 µM in each case. The TGI with T-47D breast, in the assay with TK-10 renal, with U251 CNS and with UACC-62 melanoma was above 100 µM in each case.

On to `C=C1C(=O)O[C@H]2C1C[C@H](O)[C@@]1(C)OC1CC[C@@]1(C)O[C@H]21` (stereo partly drawn), for which the TGI is above 100 µM with A549 NSCLC; 8.68 µM with CCRF-CEM leukemia; 36.5 µM in the assay with HOP-92 NSCLC; 27.4 µM with MALME-3M melanoma; 39.2 µM with NCI-H23 lung; 44 µM with NCI/ADR-RES ovarian. Further, the TGI with OVCAR-8 ovarian came out at 39.6 µM; in the assay on SF-268 CNS, 95.7 µM; with SN12C renal, 32.4 µM; in the assay on SW-620 colon, 33.2 µM; in the assay on T-47D breast it was 36.4 µM; with TK-10 renal it was 36.5 µM. Besides, the TGI was above 100 µM in the assay on U251 CNS and 28.2 µM in the assay on UACC-62 melanoma.

Consider `O=[N+]1[C@H](c2ccccc2)[C@H](c2ccccc2)N1[O-]`, for which the TGI worked out at 67.3 µM in the assay with A498 renal; 41.1 µM with A549 NSCLC; 36.3 µM with CCRF-CEM leukemia; 5.48 µM with HL-60(TB) leukemia; 30.2 µM in the assay on HOP-92 NSCLC; 32 µM with MALME-3M melanoma. Also, the TGI with MDA-MB-231 breast was found to be 38.2 µM; in the assay on NCI-H23 lung, 32 µM; in the assay on NCI/ADR-RES ovarian, 35.5 µM; in the assay on OVCAR-3 ovarian it was 30.1 µM; with OVCAR-8 ovarian, 32.7 µM; in the assay with SF-268 CNS it was 58.7 µM. For the same compound, the TGI turned out to be 32.7 µM with SF-539 CNS; 32.4 µM in the assay with SN12C renal; 28.2 µM in the assay with SW-620 colon; 30.9 µM in the assay with TK-10 renal; 33.5 µM in the assay on U251 CNS; 32.3 µM in the assay with UACC-62 melanoma.

For the compound `O=c1[nH][nH]c(=O)c2c1ccc1oc3ccccc3c12`, the TGI in the assay with A498 renal, in the assay on A549 NSCLC, with CCRF-CEM leukemia, in the assay with HL-60(TB) leukemia, with HOP-92 NSCLC and in the assay on MALME-3M melanoma was above 100 µM throughout. Also, the TGI in the assay with MDA-MB-231 breast, in the assay on NCI-H23 lung, in the assay on OVCAR-3 ovarian, with OVCAR-8 ovarian, in the assay on SF-268 CNS and in the assay with SF-539 CNS was above 100 µM throughout. The TGI in the assay on SN12C renal, in the assay with SW-620 colon, in the assay on T-47D breast, in the assay with TK-10 renal, in the assay with U251 CNS and in the assay on UACC-62 melanoma was above 100 µM in each case.
